The values below come from patent US10688116B2, “Treatment of metabolic disorders in equine animals” (Boehringer Ingelheim Vetmedica GmbH, priority 2014, dated 2020).

This series can be described thus: Physicochemical properties of the crystalline complex.

Consider `N#Cc1ccc([C@@H]2O[C@H](CO)[C@@H](O)[C@H](O)[C@H]2O)cc1Cc1ccc(C2CC2)cc1.O=C(O)[C@@H]1CCCN1` [crystalline complex], for which the “tendency to absorb moisture” value was “does not show a high tendency to absorb moisture”. Also, the “physical and chemical stability” value (various environmental conditions and during production of a medicament) is “high physical and chemical stability”.
